The numbers were not newly measured in patent publication US20240226204A9 (priority 2021, published 2024), which cites them from elsewhere.

In the data set the test system is COVID-19. The note with it: human, in vivo.

lopinavir-ritonavir: the “efficacy / antiviral effect in clinical use against COVID-19” value is listed as “lack of efficacy”. For the compound `C[C@@H]1C[C@H]2[C@@H]3CCC4=CC(=O)C=C[C@]4(C)[C@@]3(F)[C@@H](O)C[C@]2(C)[C@@]1(O)C(=O)CO` [dexamethasone], the mortality entry was “increase in mortality”. `CCN(CCO)CCCC(C)Nc1ccnc2cc(Cl)ccc12` (stereo not drawn) [hydroxychloroquine]: the “efficacy / antiviral effect in clinical use against COVID-19” value is on record as “lack of efficacy”.
